The target in the assay is human CB1 receptor (Homo sapiens, UniProt P21554). Nature of the assay: Human CB1 receptor binding, [3H] CP-55,940 displacement on HEK cell membranes. Set-up: expressed in transfected cells; host or cells: HEK cells, doxycycline-induced; membrane preparation. As for the experimental part:
The Human CB1 receptor binding affinity and other biological activities of the compounds of this invention are determined by the following procedures. Membrane preparation: Human Embryonic Kidney (HEK) Cells expressing the human CB1 receptor under transcriptional regulation of a tetracycline inducible promoter were grown in Dulbecco's Modified Essential Medium with sodium pyruvate (Invitrogen, Carlsbad, Calif.) containing 10% tetracycline free fetal bovine serum (Clonetech, Mountain View, Calif.) 100 μg/ml hygromycin (Calbiochem, San Diego, Calif.), 5 μg/ml blasticidin (Invitrogen). CB1 receptor expression was induced by addition of 1 μg/ml doxycycline (Calbiochem) and incubation for an additional 24 hours. Cells were released from flasks using Cell Dissociation Buffer (Invitrogen). Cells were pelleted by centrifugation at 500×G for 5 minutes. Membranes were prepared by resuspending cells in ice cold TEE Buffer (25 mM Tris pH 7.4, 5 mM EDTA, 5 mM EGTA, Complete Protease Inhibitor (Roche, Basel, Switzerland)). Cells were lysed with 12 strokes of a dounce homogenizer. Unlysed cells were pelleted by centrifugation at 500×G for 5 minutes. Membranes were pelleted by centrifugation at 25,000×G for 30 minutes. Membranes were resuspended in TEE, dounced 12 strokes, and pelleted a second time at 25,000×G for 30 minutes. Membrane pellet was resuspended in 50 mM Tris pH 7.4, 100 mM NaCl, 3 mM MgCl2, 0.2 mM EGTA, Complete Protease Inhibitor (Roche). Protein concentration was determined using the Micro-BCA Protein Assay Kit (Pierce, Rockford, Ill.) using BSA as a standard. Membranes were quick frozen and stored at −80 degrees Celsius until use.
Binding experiments: 50 μl of test compound was incubated with 50 μl of [^3H] CP-55,940 (Perkin Elmer, Boston, Mass.) (final concentration=[…]) and 150 μl of membrane homogenate (1 μg/well) in polypropylene 96-well plates (Corning, Acton, Mass.). Final reaction conditions were 50 mM Tris pH 7.4, 100 mM NaCl, 3 mM MgCl2, 0.2 mM EGTA, 0.04% BSA. Nonspecific binding was determined by incubation with 50 μM WIN-55, 212-2 (Tocris, Ellisville, Mo.). After incubation at room temperature for 60 minutes reactions were harvested by vacuum filtration through Unifilter GF/B-96 filters (Perkin Elmer) that had been presoaked in assay buffer containing 0.5% BSA (Sigma, St. Louis, Mo.) using a FilterMate Plate Harvester (Perkin Elmer). Filters were rinsed 4 times with 50 mM Tris pH 7.4, 0.025% Tween-20 and dried at 50 degrees Celsius for at least 30 minutes. 40 μl of Microscint-20 (Perkin Elmer) was added per well, and plates were counted using a Top-Count Microplate Scintillation Counter (Perkin Elmer). Binding data were analyzed and EC50 and K, values calculated using Graph Pad Prism 4.0 Software.

Read-outs that look alike come from different tables or passages of the source.

Chain of human CB1 receptor (P21554 whole entry): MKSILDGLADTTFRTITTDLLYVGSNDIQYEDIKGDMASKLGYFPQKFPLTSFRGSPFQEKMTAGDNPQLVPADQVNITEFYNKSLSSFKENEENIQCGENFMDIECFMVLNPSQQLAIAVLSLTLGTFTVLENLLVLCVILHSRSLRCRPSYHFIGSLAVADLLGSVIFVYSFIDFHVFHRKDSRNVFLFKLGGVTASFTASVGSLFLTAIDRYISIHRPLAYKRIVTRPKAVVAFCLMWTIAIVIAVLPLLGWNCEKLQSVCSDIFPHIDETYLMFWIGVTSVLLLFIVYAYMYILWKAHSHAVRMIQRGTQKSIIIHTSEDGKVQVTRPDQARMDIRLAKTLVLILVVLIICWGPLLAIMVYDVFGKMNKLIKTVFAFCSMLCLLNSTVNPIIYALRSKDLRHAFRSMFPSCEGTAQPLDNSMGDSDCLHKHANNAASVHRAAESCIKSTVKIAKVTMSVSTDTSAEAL

Where the note is “CB1 Ki”, `CN1CCN=C1CNC(=O)[C@@H](NC(=O)c1nn(Cc2ccc(F)cc2)c2ccccc12)C(C)(C)C` [Example 304] yielded a Ki of 152 nM. Regarding `COc1cc(CNC(=O)[C@@H](NC(=O)c2nn(Cc3ccc(C#N)cc3)c3ccccc23)C(C)(C)C)on1` [Example 311], the Ki (read-out: CB1 Ki) stood at 147 nM.

As to `COc1cc(CNC(=O)[C@@H](NC(=O)c2nn(Cc3ccc(C#N)cc3)c3c(F)cccc23)C(C)(C)C)on1` [Example 312], for the setting “read-out: CB1 Ki”, the Ki stood at 178 nM. Same read-out and setting: as for `COc1cc(CNC(=O)[C@@H](NC(=O)c2nn(Cc3ccc(C#N)cc3)c3cc(F)ccc23)C(C)(C)C)on1` [Example 313], the figure is 273 nM. For the setting “CB1 Ki”, `CC(C)(C)[C@H](NC(=O)c1nn(Cc2ccc(F)cc2)c2ccccc12)C(=O)NC[C@@H](O)C(N)=O` [Example 314] displayed a Ki of 130 nM. `CC(C)(C)[C@H](NC(=O)c1nn(Cc2ccc(C#N)cc2)c2ccccc12)C(=O)NCC1CNC(=O)O1` (some centres unmarked) [Example 316] yielded a Ki (CB1 Ki) of 243 nM. `CCNC(=O)OC1CCCN(C(=O)[C@@H](NC(=O)c2nn(Cc3ccc(F)cc3)c3ccccc23)C(C)(C)C)C1` (some centres unmarked) [Example 317]: the Ki (read-out: CB1 Ki) worked out at 31.1 nM.

With `CC(C)NC(=O)OC1CCCN(C(=O)[C@@H](NC(=O)c2nn(Cc3ccc(F)cc3)c3ccccc23)C(C)(C)C)C1` (some centres unmarked) [Example 318], the Ki (read-out: CB1 Ki) came to 68.7 nM. With `CC(C)(C)[C@H](NC(=O)c1nn(Cc2ccc(F)cc2)c2ccccc12)C(=O)N1CCC[C@@H]1C(N)=O` [Example 319], the Ki (CB1 Ki) was found to be 45.8 nM.

`CCOC(=O)C1(F)CCN(C(=O)[C@@H](NC(=O)c2nn(Cc3ccc(F)cc3)c3ccccc23)C(C)(C)C)CC1` [Example 342]: the Ki (read-out: CB1 Ki) was found to be 20.5 nM. Same read-out and setting: to `CC(C)(C)[C@H](NC(=O)c1nn(Cc2ccc(F)cc2)c2ccccc12)C(=O)N1CCC(F)(C(N)=O)CC1` [Example 343] belongs 216 nM; to `CC(C)(C)[C@H](NC(=O)c1nn(Cc2ccc(F)cc2)c2ccccc12)C(=O)NCC1CN(C(N)=O)C1` [Example 347], 24.4 nM.

Turning to `Cc1cc(O)nc(CNC(=O)[C@@H](NC(=O)c2nn(Cc3ccc(C#N)cc3)c3c(F)cccc23)C(C)(C)C)n1` [Example 349], the Ki (read-out: CB1 Ki) is 101 nM.

For the compound `Cc1cc(O)nc(CNC(=O)[C@@H](NC(=O)c2nn(Cc3ccc(C#N)cc3)c3ccccc23)C(C)(C)C)n1` [Example 350], the Ki (read-out: CB1 Ki) came to 229 nM.

Regarding `CC(C)(C)[C@H](NC(=O)c1nn(Cc2ccc(C#N)cc2)c2ccccc12)C(=O)N1CC(C(N)=O)C1` [Example 351], the affinity (CB1 Ki), expressed as Ki, was 24.3 nM. Same read-out and setting: to `CC(C)(C)[C@H](NC(=O)c1nn(Cc2ccc(C#N)cc2)c2cc(F)ccc12)C(=O)N1CC(C(N)=O)C1` [Example 353] belongs 72.8 nM; to `CC(C)(C)[C@H](NC(=O)c1nn(Cc2ccc(C#N)cc2)c2c(F)cccc12)C(=O)N[C@H]1C[C@H](O)C1` [Example 355], 52.9 nM; to `CC(C)(C)[C@H](NC(=O)c1nn(Cc2ccc(C#N)cc2)c2cc(F)ccc12)C(=O)N[C@H]1C[C@H](O)C1` [Example 356], 32.6 nM. Regarding `CC(C)(C)[C@H](NC(=O)c1nn(Cc2ccc(C#N)cc2F)c2c(F)c(F)ccc12)C(=O)NCC(N)=O` [Example 359], where the note is “CB1 Ki”, the Ki came to 47.2 nM. The same measure, in the same setting: to `CC(C)(C)[C@H](NC(=O)c1nn(Cc2ccc(C#N)cc2F)c2c(F)c(F)ccc12)C(=O)NC[C@@H](O)CO` [Example 360] belongs 73.5 nM; to `CC(C)(C)[C@H](NC(=O)c1nn(Cc2ccc(C#N)cc2F)c2c(F)c(F)ccc12)C(=O)NC[C@H](O)CO` [Example 361], 41.6 nM; to `CC(C)(C)[C@H](NC(=O)c1nn(Cc2ccc(C#N)cc2F)c2c(F)c(F)ccc12)C(=O)NCCS(C)(=O)=O` [Example 362], 125 nM. Still for that read-out and setting: to `CC(C)(C)[C@H](NC(=O)c1nn(Cc2ccc(C#N)cc2F)c2c(F)c(F)ccc12)C(=O)NCCS(N)(=O)=O` [Example 363] belongs 57.8 nM.

Consider `Cc1nnc(CNC(=O)[C@@H](NC(=O)c2nn(Cc3ccc(C#N)cc3F)c3c(F)c(F)ccc23)C(C)(C)C)o1` [Example 364], for which the Ki (read-out: CB1 Ki) amounted to 20.9 nM.

With `CC(C)(C)[C@H](NC(=O)c1nn(Cc2ccc(C#N)cc2F)c2c(F)cccc12)C(=O)NC[C@@H](O)CO` [Example 366], for the setting “CB1 Ki”, the affinity corresponds to a Ki of 241 nM. For `CC(C)(C)[C@H](NC(=O)c1nn(Cc2ccc(C#N)cc2F)c2c(F)cccc12)C(=O)NC[C@H](O)CO` [Example 367], the Ki (CB1 Ki) came to 41.4 nM. Same read-out and setting: to `CC(C)(C)[C@H](NC(=O)c1nn(Cc2ccc(C#N)cc2F)c2c(F)cccc12)C(=O)NCC(N)=O` [Example 369] belongs 28.1 nM. Still for that read-out and setting: as for `CC(C)(C)[C@H](NC(=O)c1nn(Cc2ccc(C#N)cc2F)c2c(F)cccc12)C(=O)NCCS(C)(=O)=O` [Example 370], the figure is 132 nM; as for `CC(C)(C)[C@H](NC(=O)c1nn(Cc2ccc(C#N)cc2F)c2c(F)cccc12)C(=O)NCCS(N)(=O)=O` [Example 371], 54.8 nM.

On to `Cc1nnc(CNC(=O)[C@@H](NC(=O)c2nn(Cc3ccc(C#N)cc3F)c3c(F)cccc23)C(C)(C)C)o1` [Example 372], for which the Ki (CB1 Ki) came to 22.6 nM. For the compound `CC(C)(C)[C@H](NC(=O)c1nn(Cc2ccc(F)cc2)c2ccccc12)C(=O)NCC(=O)NC(CO)CO` [Example 377], the Ki (read-out: CB1 Ki) came out at 22.5 nM.

`CC(C)(C)[C@H](NC(=O)c1nn(Cc2ccc(F)cc2)c2ccccc12)C(=O)NCC(=O)N1C[C@@H](O)[C@H](O)C1` [Example 378]: the Ki (read-out: CB1 Ki) was found to be 158 nM.

For the compound `CC(C)(C)[C@H](NC(=O)c1nn(Cc2ccc(F)cc2)c2ccccc12)C(=O)NCC(=O)N(CCO)CCO` [Example 379], for the setting “read-out: CB1 Ki”, the Ki was greater than 400 nM.

In the case of `CCOC(=O)[C@H]1C[C@@H](NC(=O)[C@@H](NC(=O)c2nn(Cc3ccc(C#N)cc3)c3ccccc23)C(C)(C)C)C1` [Example 380], the Ki (read-out: CB1 Ki) is greater than 400 nM. On the same count and under the same terms, as for `CCOC(=O)[C@H]1C[C@@H](NC(=O)[C@@H](NC(=O)c2nn(Cc3ccc(C#N)cc3F)c3ccccc23)C(C)(C)C)C1` [Example 382], the figure is 238 nM.

`CC(C)(C)[C@@H](NC(=O)c1nn(Cc2ccc(C#N)cc2)c2ccccc12)C(N)=O` [Example 383] gave a Ki (CB1 Ki) greater than 400 nM.

`CC(C)(C)[C@H](NC(=O)c1nn(Cc2ccc(C#N)cc2)c2ccccc12)C(=O)NC[C@H](O)CO` [Example 384] returned a Ki (CB1 Ki) of 286 nM. On the same count and under the same terms, as for `COc1cc(C#N)ccc1Cn1nc(C(=O)N[C@H](C(N)=O)C(C)(C)C)c2ccccc21` [Example 385], the figure is 166 nM. Regarding `COc1cc(C#N)ccc1Cn1nc(C(=O)N[C@H](C(=O)NCCO)C(C)(C)C)c2ccccc21` [Example 386], affinity (CB1 Ki) was put at a Ki of 209 nM. On the same count and under the same terms, as for `COc1cc(C#N)ccc1Cn1nc(C(=O)N[C@H](C(=O)NC[C@H](O)CO)C(C)(C)C)c2ccccc21` [Example 387], the figure is greater than 400 nM.

For the compound `COc1cc(C#N)ccc1Cn1nc(C(=O)N[C@H](C(=O)NCC(N)=O)C(C)(C)C)c2ccccc21` [Example 388], the Ki (CB1 Ki) was greater than 400 nM. Take `COc1cc(C#N)ccc1Cn1nc(C(=O)N[C@H](C(=O)NC[C@@H](O)CO)C(C)(C)C)c2ccccc21` [Example 389]: the Ki (CB1 Ki) is greater than 400 nM. Same read-out and setting: to `COc1cc(C#N)ccc1Cn1nc(C(=O)N[C@H](C(=O)NCCS(N)(=O)=O)C(C)(C)C)c2ccccc21` [Example 390] belongs greater than 400 nM; to `COc1cc(C#N)ccc1Cn1nc(C(=O)N[C@H](C(=O)NC(CO)CO)C(C)(C)C)c2ccccc21` [Example 391], greater than 400 nM; to `COc1cc(C#N)ccc1Cn1nc(C(=O)N[C@H](C(=O)NCCS(C)(=O)=O)C(C)(C)C)c2ccccc21` [Example 392], greater than 400 nM.

`COc1cc(C#N)ccc1Cn1nc(C(=O)N[C@H](C(=O)NC2CC2)C(C)(C)C)c2ccccc21` [Example 393] yielded a Ki (CB1 Ki) greater than 400 nM. Still for that read-out and setting: to `COc1cc(C#N)ccc1Cn1nc(C(=O)N[C@@H](C(N)=O)C(C)(C)C)c2ccccc21` [Example 394] belongs greater than 400 nM; to `CC(C)(C)[C@H](NC(=O)c1nn(Cc2ccc(C#N)cc2)c2ccccc12)C(=O)N[C@H]1C[C@@H](C(N)=O)C1` [Example 396], 239 nM.

`CC(C)(C)[C@H](NC(=O)c1nn(Cc2ccc(C#N)cc2F)c2ccccc12)C(=O)N[C@H]1C[C@@H](C(N)=O)C1` [Example 397]: for the setting “CB1 Ki”, the Ki was 243 nM. In turn, `COc1cc(C#N)ccc1Cn1nc(C(=O)N[C@H](C(=O)N[C@H]2C[C@@H](C(N)=O)C2)C(C)(C)C)c2ccccc21` [Example 399] showed a Ki (CB1 Ki) greater than 400 nM.
